Assay results: the Kinase Knowledgebase extract (Sharma et al. 2016)

Tests used:
[1] = test system: EGFR (Human), P00533 [Assessment of Proliferation in EGFR DelE746_A750 Mutant Expressing HCC827 Cells]
[2] = test system: EGFR (Human), P00533 [T790M/L858R]; settings: nci-h1975
Chain of EGFR (Human), P00533 [T790M/L858R] (P00533 whole entry T790M/L858R, looked up): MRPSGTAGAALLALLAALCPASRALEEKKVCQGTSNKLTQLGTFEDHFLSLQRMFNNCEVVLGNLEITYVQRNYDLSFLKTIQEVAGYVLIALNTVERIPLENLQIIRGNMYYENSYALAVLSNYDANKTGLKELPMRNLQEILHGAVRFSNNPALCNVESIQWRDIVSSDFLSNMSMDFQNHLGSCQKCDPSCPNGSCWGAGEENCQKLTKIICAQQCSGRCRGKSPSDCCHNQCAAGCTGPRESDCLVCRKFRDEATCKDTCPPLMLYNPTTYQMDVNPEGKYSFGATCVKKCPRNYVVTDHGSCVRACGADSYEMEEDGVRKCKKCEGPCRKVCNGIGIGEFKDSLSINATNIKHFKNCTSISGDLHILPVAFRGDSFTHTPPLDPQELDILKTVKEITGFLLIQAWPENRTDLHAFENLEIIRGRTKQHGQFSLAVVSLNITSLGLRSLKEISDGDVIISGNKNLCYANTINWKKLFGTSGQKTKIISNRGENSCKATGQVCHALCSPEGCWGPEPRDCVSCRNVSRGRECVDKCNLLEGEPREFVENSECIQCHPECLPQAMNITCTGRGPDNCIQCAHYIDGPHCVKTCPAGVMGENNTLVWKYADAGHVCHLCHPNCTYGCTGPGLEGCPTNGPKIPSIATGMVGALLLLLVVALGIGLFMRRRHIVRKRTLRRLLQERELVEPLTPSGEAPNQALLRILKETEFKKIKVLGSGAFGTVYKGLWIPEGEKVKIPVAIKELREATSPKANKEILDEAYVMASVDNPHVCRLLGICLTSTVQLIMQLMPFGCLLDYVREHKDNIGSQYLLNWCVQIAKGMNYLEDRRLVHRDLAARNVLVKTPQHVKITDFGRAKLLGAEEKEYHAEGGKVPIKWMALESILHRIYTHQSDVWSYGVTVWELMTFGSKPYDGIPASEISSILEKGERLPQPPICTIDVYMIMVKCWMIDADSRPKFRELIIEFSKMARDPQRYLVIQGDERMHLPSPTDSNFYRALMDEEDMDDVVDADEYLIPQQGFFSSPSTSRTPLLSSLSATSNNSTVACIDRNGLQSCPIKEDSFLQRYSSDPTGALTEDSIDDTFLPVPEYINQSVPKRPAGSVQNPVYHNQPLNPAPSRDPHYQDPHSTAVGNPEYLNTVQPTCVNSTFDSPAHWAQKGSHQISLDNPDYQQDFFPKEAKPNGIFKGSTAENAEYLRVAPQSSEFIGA

Chain of EGFR (Human), P00533 [Assessment of Proliferation in EGFR DelE746_A750 Mutant Expressing HCC827 Cells] (P00533 whole entry, looked up, stated change not applied): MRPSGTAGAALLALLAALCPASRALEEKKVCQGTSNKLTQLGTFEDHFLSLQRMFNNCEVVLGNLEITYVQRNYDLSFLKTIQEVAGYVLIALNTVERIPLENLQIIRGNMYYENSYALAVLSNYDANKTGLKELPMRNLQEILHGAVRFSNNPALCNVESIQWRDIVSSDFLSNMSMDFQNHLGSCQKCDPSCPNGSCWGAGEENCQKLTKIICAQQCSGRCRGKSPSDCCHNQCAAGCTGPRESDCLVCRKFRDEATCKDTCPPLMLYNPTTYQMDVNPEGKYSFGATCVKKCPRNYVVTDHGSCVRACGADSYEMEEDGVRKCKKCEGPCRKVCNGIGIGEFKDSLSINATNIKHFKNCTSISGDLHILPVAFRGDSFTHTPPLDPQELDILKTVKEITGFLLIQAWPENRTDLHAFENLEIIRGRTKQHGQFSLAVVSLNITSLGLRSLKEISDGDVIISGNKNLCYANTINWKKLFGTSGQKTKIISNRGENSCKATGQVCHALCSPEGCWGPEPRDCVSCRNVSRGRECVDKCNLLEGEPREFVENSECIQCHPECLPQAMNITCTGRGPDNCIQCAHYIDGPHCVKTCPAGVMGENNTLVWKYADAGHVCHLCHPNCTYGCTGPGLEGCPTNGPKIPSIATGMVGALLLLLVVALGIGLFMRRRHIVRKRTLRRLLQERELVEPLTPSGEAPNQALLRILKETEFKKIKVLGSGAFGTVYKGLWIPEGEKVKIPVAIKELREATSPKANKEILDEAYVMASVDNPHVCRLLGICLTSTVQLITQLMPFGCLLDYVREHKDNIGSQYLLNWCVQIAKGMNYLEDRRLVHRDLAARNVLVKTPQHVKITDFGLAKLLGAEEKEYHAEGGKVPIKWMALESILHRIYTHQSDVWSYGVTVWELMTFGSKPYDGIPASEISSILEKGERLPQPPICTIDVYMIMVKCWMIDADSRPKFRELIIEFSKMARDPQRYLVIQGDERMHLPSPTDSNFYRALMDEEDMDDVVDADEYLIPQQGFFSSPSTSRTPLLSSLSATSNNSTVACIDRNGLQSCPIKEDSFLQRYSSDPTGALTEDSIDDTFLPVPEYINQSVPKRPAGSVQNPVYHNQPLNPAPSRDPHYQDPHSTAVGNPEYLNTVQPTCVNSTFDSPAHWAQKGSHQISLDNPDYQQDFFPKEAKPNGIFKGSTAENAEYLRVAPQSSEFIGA

Row | Structure (SMILES) | GI50 [1] [nM] | GI50 [2] [nM]
1 | C=CC(=O)Nc1cccc(Oc2nc(Nc3ccc(-n4ccnc4)cc3)nc3ccsc23)c1 | 50 to 100 | ≤ 50
2 | C=CC(=O)Nc1cccc(Oc2nc(Nc3ccc(N4CCN(S(=O)(=O)N(C)C)CC4)cc3)nc3ccsc23)c1 | 50 to 100 | 50 to 100
3 | C=CC(=O)Nc1cccc(Oc2nc(Nc3ccc(N4CCN(CC(F)(F)F)CC4)cc3)nc3ccsc23)c1 | 50 to 100 | ≤ 50
4 | C=CC(=O)Nc1cccc(Oc2nc(Nc3ccc(N4CCN(S(C)(=O)=O)CC4)cc3)nc3ccsc23)c1 | 50 to 100 | ≤ 50
5 | C=CC(=O)Nc1cccc(Oc2nc(Nc3ccc(CN4CCOCC4)cc3)nc3ccsc23)c1 | 50 to 100 | ≤ 50
6 | C=CC(=O)Nc1cccc(Oc2nc(Nc3ccc(OCCN4CCOCC4)c(F)c3)nc3ccsc23)c1 | 50 to 100 | ≤ 50
7 | C=CC(=O)Nc1cccc(Oc2nc(Nc3ccc(CCN4CCN(CC)CC4)cc3)nc3ccsc23)c1 | 50 to 100 | ≤ 50
8 | C=CC(=O)Nc1cccc(Oc2nc(Nc3ccc(CN4CCN(C)CC4)cc3)nc3ccsc23)c1 | ≤ 50 | ≤ 50
9 | C=CC(=O)Nc1cccc(Oc2nc(Nc3ccc(CP(=O)(OC)OC)cc3)nc3ccsc23)c1 | ≤ 50 | ≤ 50
10 | C=CC(=O)Nc1ccc(F)c(Nc2nc(Nc3ccc(N4CCN(C)CC4)cc3)nc3ccsc23)c1 | ≤ 50 | 50 to 100
11 | C=CC(=O)Nc1cccc(Oc2nc(Nc3ccc(CN4CCC(N(C)C)CC4)c(F)c3)nc3ccsc23)c1 | ≤ 50 | 50 to 100
12 | C=CC(=O)Nc1cccc(Oc2nc(Nc3ccc(NC4CCN(C)CC4)c(F)c3)nc3ccoc23)c1 | ≤ 50 | ≤ 50
13 | C=CC(=O)Nc1cccc(Nc2nc(Nc3ccc(C4CCN(C)CC4)cc3)nc3ccsc23)c1 | ≤ 50 | ≤ 50
14 | C=CC(=O)Nc1cccc(Oc2nc(Nc3ccc(C(=O)NC4CCN(C)CC4)c(OC)c3)nc3ccsc23)c1 | ≤ 50 | 50 to 100
15 | C=CC(=O)Nc1cccc(Nc2nc(Nc3ccc(CN4CCCCC4)cc3)nc3ccsc23)c1 | ≤ 50 | ≤ 50
16 | C=CC(=O)Nc1cccc(Oc2nc(Nc3ccc(C4CCCN(C)C4)c(F)c3)nc3ccsc23)c1 (centres undefined) | ≤ 50 | ≤ 50
17 | C=CC(=O)Nc1cccc(Oc2nc(Nc3ccc4c(c3)CCN4C(=O)CN(C)C)nc3ccsc23)c1 | ≤ 50 | ≤ 50

Row | Structure (SMILES) | GI50 [1] [nM] | GI50 [2] [nM]
18 | C=CC(=O)Nc1cccc(Oc2nc(Nc3ccc(CS(C)(=O)=O)cc3)nc3ccsc23)c1 | ≤ 50 | ≤ 50
19 | C=CC(=O)Nc1cccc(Oc2nc(Nc3ccc(C(=O)N4CCN(CC)CC4)c(Cl)c3)nc3ccsc23)c1 | ≤ 50 | ≤ 50
20 | C=CC(=O)Nc1cccc(Oc2nc(Nc3ccc(CCS(C)(=O)=O)cc3)nc3ccsc23)c1 | 50 to 100 | ≤ 50
21 | C=CC(=O)Nc1cccc(Oc2nc(Nc3ccc(OC4CCN(CC)CC4)cc3)nc3ccsc23)c1 | ≤ 50 | ≤ 50
22 | C=CC(=O)Nc1cccc(Oc2nc(Nc3ccc4c(c3)OCCO4)nc3ccsc23)c1 | 50 to 100 | ≤ 50
23 | C=CC(=O)Nc1cccc(Oc2nc(Nc3ccc(N4CCN(S(C)(=O)=O)CC4)c(F)c3)nc3ccsc23)c1 | ≤ 50 | ≤ 50
24 | C=CC(=O)Nc1cccc(Oc2nc(Nc3ccc(C(=O)NCCN4CCCC4)cc3)nc3ccsc23)c1 | ≤ 50 | ≤ 50
25 | C=CC(=O)Nc1cccc(Oc2nc(Nc3ccc(O)cc3)nc3ccsc23)c1 | 100 to 1000 | 100 to 1000
26 | C=CC(=O)Nc1cccc(Oc2nc(Nc3ccc(CN4CCC(N5CCOCC5)CC4)cc3)nc3ccsc23)c1 | ≤ 50 | ≤ 50
27 | C=CC(=O)Nc1cccc(Oc2nc(Nc3ccc(N4CCN(C(C)(C)C)CC4)cc3)nc3ccsc23)c1 | ≤ 50 | ≤ 50
28 | C=CC(=O)Nc1cccc(Oc2nc(Nc3ccc(N4CC5CC4CN5C)cc3)nc3ccsc23)c1 (centres undefined) | 50 to 100 | ≤ 50
29 | C=CC(=O)Nc1cccc(Oc2nc(Nc3ccc(NCCN(C)C)c(F)c3)nc3ccsc23)c1 | ≤ 50 | ≤ 50
30 | C=CC(=O)Nc1cccc(Oc2nc(Nc3ccc(CN4CCN(C5CCN(C)CC5)CC4)cc3)nc3ccsc23)c1 | ≤ 50 | ≤ 50
31 | C=CC(=O)Nc1cccc(Oc2nc(Nc3ccc(C(=O)N(C)C)c(Cl)c3)nc3ccsc23)c1 | 50 to 100 | ≤ 50
32 | C=CC(=O)Nc1cccc(Oc2nc(Nc3ccc(N4CCN(C)CC4)cc3F)nc3ccsc23)c1 | 50 to 100 | 50 to 100
33 | C=CC(=O)Nc1cccc(Oc2nc(Nc3ccc(N4CCC(N5CCN(CC)CC5)CC4)cc3)nc3ccsc23)c1 | ≤ 50 | 100 to 1000

Continued, in another order:

Row | GI50 [1] [nM] | Structure (SMILES) | GI50 [2] [nM]
34 | ≤ 50 | C=CC(=O)Nc1cccc(Oc2nc(Nc3ccc(C=CCN4CCCCC4)cc3)nc3ccsc23)c1 | 50 to 100
35 | ≤ 50 | C=CC(=O)Nc1cccc(Oc2nc(Nc3ccc(C4CCN(C)CC4)c(F)c3)nc3ccsc23)c1 | ≤ 50
36 | ≤ 50 | C=CC(=O)Nc1cccc(Oc2nc(Nc3ccc(N4CCN(CCOC)CC4)cc3)nc3ccsc23)c1 | ≤ 50
37 | ≤ 50 | C=CC(=O)Nc1cccc(Oc2nc(Nc3ccc(N4CCC(CN(C)C)CC4)cc3)nc3ccsc23)c1 | ≤ 50
38 | ≤ 50 | C=CC(=O)Nc1cccc(Oc2nc(Nc3ccc(CN4CCN(CC)CC4)cc3)nc3ccsc23)c1 | ≤ 50
39 | ≤ 50 | C=CC(=O)Nc1cccc(Oc2nc(Nc3ccc(NC4CCN(C(C)C)CC4)c(F)c3)nc3ccsc23)c1 | ≤ 50
40 | ≤ 50 | C=CC(=O)Nc1cccc(Oc2nc(Nc3ccc(N4CCN(C5CCN(C)CC5)CC4)cc3)nc3ccsc23)c1 | ≤ 50
41 | ≤ 50 | C=CC(=O)Nc1cccc(Oc2nc(Nc3ccc(N4CCC(N5CCCCC5)CC4)c(F)c3)nc3ccsc23)c1 | ≤ 50
42 | ≤ 50 | C=CC(=O)Nc1cccc(Oc2nc(Nc3ccc(OCCN4CCOCC4)c(OC)c3)nc3ccsc23)c1 | ≤ 50
43 | ≤ 50 | C=CC(=O)Nc1cccc(Oc2nc(Nc3ccc(C(=O)NC4CCN(C)CC4)cc3)nc3ccsc23)c1 | ≤ 50
44 | ≤ 50 | C=CC(=O)Nc1cccc(Oc2nc(Nc3ccc(OC4CCN(C)CC4)c(F)c3)nc3ccsc23)c1 | ≤ 50
45 | ≤ 50 | C=CC(=O)Nc1cccc(Oc2nc(Nc3ccc(N4CCNCC4)c(Cl)c3)nc3ccsc23)c1 | ≤ 50
46 | ≤ 50 | C=CC(=O)Nc1cccc(Oc2nc(Nc3ccc(C4CCCN(C)C4)cc3OC)nc3ccsc23)c1 (centres undefined) | ≤ 50
47 | ≤ 50 | C=CC(=O)Nc1cccc(Oc2nc(Nc3ccc(N4CCC(n5ccnc5)CC4)cc3)nc3ccsc23)c1 | ≤ 50
48 | ≤ 50 | C=CC(=O)Nc1cccc(Oc2nc(Nc3ccc(N4CCN(CC)CC4)cc3OC)nc3ccsc23)c1 | ≤ 50
49 | ≤ 50 | C=CC(=O)Nc1cccc(Sc2nc(Nc3ccc(N4CCN(C)CC4)cc3)nc3ccsc23)c1 | ≤ 50
50 | ≤ 50 | C=CC(=O)Nc1cccc(Oc2nc(Nc3ccc(N4CCN(C)CC4)c(F)c3)nc3ccsc23)c1 | ≤ 50
51 | ≤ 50 | C=CC(=O)Nc1cccc(Oc2nc(Nc3ccc(OCCN(C)C)cc3)nc3ccsc23)c1 | ≤ 50
52 | ≤ 50 | C=CC(=O)Nc1cccc(Oc2nc(Nc3ccc(C(=O)NC4CCN(C)CC4)c(Cl)c3)nc3ccsc23)c1 | ≤ 50
